Our source for the MIC values is US4556658A, “7-Amino-1-cyclopropyl-6,8-difluoro-1,4-di hydro-4-oxo-quinoline-3-carboxylic acids and antibacterial agents containing these compounds” (Bayer Aktiengesellschaft, priority 1983, dated 1985).

≈ marks a conversion by molar mass, not a printed value. Like-named read-outs stand apart in the source and are kept apart here.

Common to all, as to assay type: cell-based
Assay [1] relates to Proteus mir. 8223. The experiment in a line: MIC, agar dilution test, Proteus mir. 8223. Conditions: Proteus mirabilis. An excerpt:
(§1) | Denley multipoint inoculator
(Agar dilution tests growth on a series of plates holding different concentrations.)

The test system of assay [2] is Proteus morg. 932. The experiment in a line: MIC, agar dilution test, Proteus morg. 932. Conditions: Morganella morganii, Isosensitest medium.
Text: as §1

The subject of assay [3] is Streptococc. faecal. 9790. The assay is described as follows: MIC, agar dilution test, Streptococc. faecal. 9790.
Text: as §1

In assay [4] the test system is Pseudomonas W. The experiment in a line: MIC, agar dilution test, Pseudomonas W.
Text: as §1

[5] abbreviates: Proteus mir. 8223, agar dilution, Isosensitest medium, read-out: MIC.
The mark [6] stands for this setting: Streptococc. faecal. 9790, agar dilution, Isosensitest medium, read-out: MIC.
[7] abbreviates: Pseudomonas W., agar dilution, Isosensitest medium, read-out: MIC.

The MIC is the smallest concentration in the dilution series that meets the test's criterion for growth inhibition. On to `CC1CN(c2c(F)cc3c(=O)c(C(=O)O)cn(C4CC4)c3c2F)CC(C)O1` (centres unmarked) [Example 10], for which the MIC in assay [1] (setting [5]) turned out to be 8000 µg/mL (≈ 21100 µM); in assay [2], 1000 µg/mL (≈ 2640 µM); in assay [3] (setting [6]), 250 µg/mL (≈ 661 µM); in assay [4] (setting [7]), 4000 µg/mL (≈ 10600 µM).

On to `CCC1CN(c2c(F)cc3c(=O)c(C(=O)O)cn(C4CC4)c3c2F)CCN1` (centres unmarked) [Example 4], for which the figures for the MIC in assay [1] (setting [5]), in assay [3] (setting [6]) and in assay [4] (setting [7]) were 8000 µg/mL (≈ 21200 µM), 500 µg/mL (≈ 1320 µM) and 1000 µg/mL (≈ 2650 µM), respectively.

As for `Cl.O=C(O)c1cn(C2CC2)c2c(F)c(N3CCNCC3)c(F)cc2c1=O` [Example 1, 1-cyclopropyl-6,8-difluoro-7-(piperazin-1-yl)-1,4-dihydro-4-oxoquinoline-3-carboxylic acid hydrochloride], the minimum inhibitory concentration (MIC) in assay [1] (MIR.8223) came out at 2000 µg/mL; in assay [3], 250 µg/mL; in assay [4] (Pseudomonas) it was 60 µg/mL.

In the case of `CCN1CCN(c2c(F)cc3c(=O)c(C(=O)O)cn(C4CC4)c3c2F)CC1` [Example 13], the MIC in assay [1] (setting [5]) turned out to be 4000 µg/mL (≈ 10600 µM); in assay [3] (setting [6]) it was 1000 µg/mL (≈ 2650 µM); in assay [4] (setting [7]), 500 µg/mL (≈ 1320 µM).

In the case of `CC(=O)CCN1CCN(c2c(F)cc3c(=O)c(C(=O)O)cn(C4CC4)c3c2F)CC1` [Example 28, 1-cyclopropyl-6,8-difluoro-1,4-dihydro-4-oxo-7-[4-(3-oxobutyl)-piperazin-1-yl]-quinoline-3-carboxylic acid], the minimal inhibitory concentration (MIC) stood at 4000 µg/mL (≈ 9540 µM) in assay [1] (setting [5]), 500 µg/mL (≈ 1190 µM) in assay [3] (setting [6]) and 250 µg/mL (≈ 596 µM) in assay [4] (setting [7]).

In the case of `O=C(O)c1cn(C2CC2)c2c(F)c(N3CCCC3)c(F)cc2c1=O` [Example 11], the MIC in assay [1] (setting [5]) came to 8000 µg/mL (≈ 23900 µM); in assay [2] it was 500 µg/mL (≈ 1500 µM); in assay [3] (setting [6]), 500 µg/mL (≈ 1500 µM); in assay [4] (setting [7]) it was 4000 µg/mL (≈ 12000 µM).

With `O=C(O)c1cn(C2CC2)c2c(F)c(N3CCOCC3)c(F)cc2c1=O` [Example 7, 1-cyclopropyl-6,8-difluoro-7-(morpholin-4-yl)-1,4-dihydro-4-oxoquinoline-3-carboxylic acid], the MIC in assay [1] (setting [5]) stood at 8000 µg/mL (≈ 22800 µM); in assay [2], 60 µg/mL (≈ 171 µM); in assay [3] (setting [6]), 500 µg/mL (≈ 1430 µM); in assay [4] (setting [7]), 1000 µg/mL (≈ 2850 µM).

`CCN1CCN(c2c(F)cc3c(=O)c(C(=O)O)cn(C4CC4)c3c2F)CC1C` (centres unmarked) [Example 14]: the MIC in assay [1] (setting [5]) was 16000 µg/mL (≈ 40900 µM); in assay [2] it was 30 µg/mL (≈ 76.6 µM); in assay [3] (setting [6]), 1000 µg/mL (≈ 2550 µM); in assay [4] (setting [7]), 4000 µg/mL (≈ 10200 µM).

For the compound `CN1CCN(c2c(F)cc3c(=O)c(C(=O)O)cn(C4CC4)c3c2F)CC1.Cl` [Example 2, 1-cyclopropyl-6,8-difluoro-7-(4-methylpiperazin-1-yl)-1,4-dihydro-4-oxoquinoline-3-carboxylic acid hydrochloride], the MIC in assay [1] (setting [5]) was 2000 µg/mL; in assay [3] (setting [6]), 500 µg/mL.

With `O=C(O)c1cn(C2CC2)c2c(F)c(N3CCN(CC4CC4)CC3)c(F)cc2c1=O` [Example 15, 1-cyclopropyl-7-(4-cyclopropylmethylpiperazin-1-yl)-6,8-difluoro-1,4-dihydro-4-oxoquinoline-3-carboxylic acid], the MIC in assay [1] (setting [5]) worked out at 8000 µg/mL (≈ 19800 µM); in assay [2], 60 µg/mL (≈ 149 µM); in assay [3] (setting [6]) it was 2000 µg/mL (≈ 4960 µM); in assay [4] (setting [7]), 8000 µg/mL (≈ 19800 µM).

Take `CC1CN(c2c(F)cc3c(=O)c(C(=O)O)cn(C4CC4)c3c2F)CC(C)N1` (centres unmarked) [Example 5]: the MIC was determined as 4000 µg/mL (≈ 10600 µM) in assay [1] (setting [5]), 500 µg/mL (≈ 1320 µM) in assay [3] (setting [6]) and 1000 µg/mL (≈ 2650 µM) in assay [4] (setting [7]).

Take `CC(C)N1CCN(c2c(F)cc3c(=O)c(C(=O)O)cn(C4CC4)c3c2F)CC1.I` [Example 12, 1-cyclopropyl-6,8-difluoro-7-(4-isopropylpiperazin-1-yl)-1,4-dihydro-4-oxoquinoline-3-carboxylic acid hydriodide]: the MIC in assay [1] (setting [5]) is 16000 µg/mL; in assay [2], 60 µg/mL; in assay [3] (setting [6]), 2000 µg/mL; in assay [4] (setting [7]), 8000 µg/mL.

For the compound `O=C(O)c1cn(C2CC2)c2c(F)c(N3CCN(CCO)CC3)c(F)cc2c1=O` [Example 6], the MIC came out at 4000 µg/mL (≈ 10200 µM) in assay [1] (setting [5]), 500 µg/mL (≈ 1270 µM) in assay [3] (setting [6]) and 1000 µg/mL (≈ 2540 µM) in assay [4] (setting [7]).

Consider `CC1CN(c2c(F)cc3c(=O)c(C(=O)O)cn(C4CC4)c3c2F)CCN1` (centres unmarked) [Example 3], for which the results for the MIC in assay [1] (setting [5]), in assay [3] (setting [6]) and in assay [4] (setting [7]) were 4000 µg/mL (≈ 11000 µM), 500 µg/mL (≈ 1380 µM) and 500 µg/mL (≈ 1380 µM), respectively.

Turning to `O=C(O)c1cn(C2CC2)c2c(F)c(N3CCC(O)CC3)c(F)cc2c1=O` [Example 8], the MIC in assay [1] (setting [5]) was 4000 µg/mL (≈ 11000 µM); in assay [2] it was 30 µg/mL (≈ 82.3 µM); in assay [4] (setting [7]), 1000 µg/mL (≈ 2740 µM).
